Results published in ChEMBL document CHEMBL1201862, “PubChem BioAssay data set” (2004).
The source made the active and inactive calls.

How the values were obtained:
[1] = target: T1, Adenosylmethionine-8-amino-7-oxononanoate aminotransferase (Mycobacterium tuberculosis, UniProt P9WQ81); test: Mycobacterium tuberculosis BioA enzyme inhibitor Measured in Biochemical System Using Plate Reader - 2163-02_Inhibitor_Dose_CherryPick_Activity.; assay type: functional, Mycobacterium tuberculosis UT205
T1 sequence (P9WQ81 whole entry): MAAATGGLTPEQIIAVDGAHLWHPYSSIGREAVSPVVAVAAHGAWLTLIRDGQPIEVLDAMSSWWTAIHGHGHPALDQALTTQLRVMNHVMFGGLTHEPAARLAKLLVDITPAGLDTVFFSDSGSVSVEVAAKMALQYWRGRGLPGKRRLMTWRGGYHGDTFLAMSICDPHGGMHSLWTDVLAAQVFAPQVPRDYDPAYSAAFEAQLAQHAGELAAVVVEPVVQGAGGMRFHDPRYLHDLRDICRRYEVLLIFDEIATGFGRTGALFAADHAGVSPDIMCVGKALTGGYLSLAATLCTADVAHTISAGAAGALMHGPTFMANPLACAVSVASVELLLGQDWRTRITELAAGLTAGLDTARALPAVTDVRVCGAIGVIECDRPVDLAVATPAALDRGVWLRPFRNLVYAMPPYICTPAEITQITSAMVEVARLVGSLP

[2] = target: T2, Small ubiquitin-related modifier 1 (Homo sapiens, UniProt P63165); test: inhibitors of SUMO1 peptide binding, dose response, biochemical, fluorescence polarization, uHTS hits (AID 624382); assay type: functional; settings: read-out: IC50_Mean
T2 sequence (P63165 whole entry, the tested form may be a part): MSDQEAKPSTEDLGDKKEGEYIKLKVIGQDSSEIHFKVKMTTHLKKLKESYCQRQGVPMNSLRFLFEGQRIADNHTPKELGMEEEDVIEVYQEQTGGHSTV

[3] = target: T3, Carboxy-terminal domain RNA polymerase II polypeptide A small phosphatase 1 (Homo sapiens, UniProt Q9GZU7); test: inhibitors of CTDSP1, concentration-response testing, biochemical assay, absorbance-based, actives from ultra-high-throughput screening (AID 540297); assay type: functional
T3 sequence (Q9GZU7 whole entry): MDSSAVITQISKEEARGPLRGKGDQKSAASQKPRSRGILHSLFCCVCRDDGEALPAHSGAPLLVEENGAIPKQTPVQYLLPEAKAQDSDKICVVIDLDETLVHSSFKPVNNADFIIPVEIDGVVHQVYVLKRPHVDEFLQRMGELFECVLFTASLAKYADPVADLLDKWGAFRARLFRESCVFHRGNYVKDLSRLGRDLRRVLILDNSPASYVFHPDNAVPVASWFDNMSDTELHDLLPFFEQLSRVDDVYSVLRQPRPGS

[4] = target: T2, Small ubiquitin-related modifier 1; test: inhibitors of SUMO1 partner interactions, dose response, biochemical, FRET (AID 624383); assay type: functional; settings: read-out: IC50_Mean
[5] = target: T4, Corticotropin-releasing factor receptor 2/Corticotropin-releasing factor-binding protein (Homo sapiens, UniProt P24387+Q13324); test: activators of CRF receptor 2 with binding protein – uHTS hits, confirmation (AID 602473); assay type: functional; settings: read-out: EC50_Mean
T4 sequence (Q13324 whole entry): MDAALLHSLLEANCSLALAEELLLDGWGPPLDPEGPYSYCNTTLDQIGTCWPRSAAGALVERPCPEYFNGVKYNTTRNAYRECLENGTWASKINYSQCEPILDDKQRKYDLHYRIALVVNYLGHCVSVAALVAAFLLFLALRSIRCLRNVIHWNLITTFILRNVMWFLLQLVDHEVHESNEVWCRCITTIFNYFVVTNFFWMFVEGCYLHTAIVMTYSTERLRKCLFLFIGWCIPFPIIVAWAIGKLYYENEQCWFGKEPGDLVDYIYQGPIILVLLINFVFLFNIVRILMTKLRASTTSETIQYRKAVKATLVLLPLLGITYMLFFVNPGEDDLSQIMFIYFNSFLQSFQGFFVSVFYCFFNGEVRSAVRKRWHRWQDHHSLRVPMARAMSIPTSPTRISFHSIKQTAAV
T4 sequence (P24387 whole entry): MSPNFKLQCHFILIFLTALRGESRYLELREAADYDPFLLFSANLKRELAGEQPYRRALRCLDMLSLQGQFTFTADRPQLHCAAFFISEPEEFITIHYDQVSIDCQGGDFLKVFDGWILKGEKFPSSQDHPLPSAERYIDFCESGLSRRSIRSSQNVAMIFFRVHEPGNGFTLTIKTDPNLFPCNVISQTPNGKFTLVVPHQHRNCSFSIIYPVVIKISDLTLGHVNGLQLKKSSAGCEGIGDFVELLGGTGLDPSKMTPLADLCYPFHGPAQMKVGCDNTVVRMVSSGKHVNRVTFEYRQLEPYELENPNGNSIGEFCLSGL

[6] = NIH-3T3 fibroblast cytotoxicity, dose response, cytotoxicity control, cell-based, fluorescence, Alamar Blue, secondary assay (AID 2327); assay type: functional;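 note: NIH-3T3 mouse fibroblasts cultured with fluconazole at 8 µg/mL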
[7] = CRF-BP/CRF-R2 complex antagonists, dose response, cell-based, uHTS hits, 384-well (AID 651639); assay type: functional, Homo sapiens; settings: read-out: IC50_Mean
[8] = target: T4, Corticotropin-releasing factor receptor 2/Corticotropin-releasing factor-binding protein; test: Dose Response confirmation of uHTS hits for small molecule antagonists of the CRF-binding protein and CRF-R2 receptor complex.; assay type: functional; settings: read-out: IC50_Mean
[9] = P. falciparum late gametocyte killing, dose response, luminescence (AID 1117278); assay type: functional, cell-based;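 note: gametocytes exposed to compound for 24 hours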
[10] = Jurkat T cell cytotoxicity, dose response, cytotoxicity control for P. falciparum gametocyte viability project, luminescence (AID 1117277); assay type: functional, cell-based;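 note: potency reflects loss of cellular ATP meaning fewer viable cells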
[11] = target: T5, Fructose-bisphosphate aldolase (Mycobacterium tuberculosis, UniProt P9WQA3); test: Fluorescence-based biochemical high throughput dose response assay for inhibitors of the fructose-bisphosphate aldolase (FBA) of M. tuberculosis.; assay type: functional
T5 sequence (P9WQA3 whole entry): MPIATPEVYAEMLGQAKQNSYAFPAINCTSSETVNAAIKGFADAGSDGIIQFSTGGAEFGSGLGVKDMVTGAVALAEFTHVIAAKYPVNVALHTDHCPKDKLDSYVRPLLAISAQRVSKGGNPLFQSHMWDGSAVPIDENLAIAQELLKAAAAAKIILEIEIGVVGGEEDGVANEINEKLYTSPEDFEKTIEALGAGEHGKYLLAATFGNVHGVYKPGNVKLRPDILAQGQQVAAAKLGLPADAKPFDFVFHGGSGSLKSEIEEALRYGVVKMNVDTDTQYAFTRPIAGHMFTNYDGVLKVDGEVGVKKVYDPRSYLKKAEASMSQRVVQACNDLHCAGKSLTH

With `C/C=C/c1ccc2c(c1)O[C@@H](CN(C)C(=O)c1ccc3c(c1)OCO3)[C@@H](C)CN([C@@H](C)CO)S2(=O)=O` the AC50 [1] was 5.33 µM (active).
For `CC(=O)c1ccc(NC(=O)c2cccc(N3C(=O)c4ccccc4C3=O)c2)cc1`, the IC50 [2] was > 66.6 µM (inactive), the IC50 [3] was 9.44 µM (active) and the IC50 [4] was 3.13 µM (active).
In the case of `O=C(O)c1cnc(-c2ccccc2)nc1Sc1ccc(Cl)cc1`, the EC50 [5] is reported as > 53 µM (inactive), the EC50 [6] is reported as 98.3 µM (inconclusive) and the IC50 [7] is reported as > 20 µM (inactive). For the same molecule, the IC50 [8] was 16.8 µM (active).
With `COc1cccc(CNC(=O)c2ccc(NC(=O)C3=CSCCO3)cc2)c1` the AC50 [1] was 3.61 µM (active).
In the case of `CCOc1ccccc1CNCCNC(=O)c1nonc1N`, the IC50 [9] is reported as > 109 µM (inactive) and the IC50 [10] is reported as > 83.3 µM (inactive).
For `Cc1cc(C)n(Cc2ccc(Cl)nc2)n1`, the IC50 [9] was > 109 µM (inactive) and the IC50 [10] was > 83.3 µM (inactive).
In the case of `N=c1c(C(=O)NC2CCCCC2)cc2c(=O)n3ccccc3nc2n1Cc1ccco1`, the IC50 [11] is reported as 3.71 µM (active).
With `CC1(C(=O)Nc2ccccc2)Cc2c(-c3ccc4c(c3)OCO4)ccnc2O1` (stereo unspecified) the IC50 [11] was 2.52 µM (active).
In the case of `Cc1c(C(N)=O)sc(N)c1C(=O)OC(C)C`, the AC50 [1] is reported as 3.06 µM (active).
